# Assay results published in US20250388542A1, “ANALOGUES OF PENTAMIDINE AND USES THEREFOR” (Auransa Inc., priority 2018, published 2025).
# Assays:
# Assay type in all cases: cell-based
# [1] = tested on: DU4475; assay: CellTiter-Glo cytotoxicity, cancer cell line panel / breast cancer study; conditions: DU4475, Breast carcinoma
# Description: (§1) The objective of this study is to investigate potential cell killing effect of Compounds 1-15 on 3 cancer cell lines. 50% inhibition concentration (IC50) was determined for these compounds in various cancer cell lines using CellTiter-Glo™ luminescent cell viability assay at different compound concentrations. Each cell line (e.g., NCI-H209; NCI-H69; and SW1271) was treated with Compounds 1-15 and culture medium contains 0.2% [v/v] DMSO vehicle control. All the cells were cultured in the media supplemented with 10-20% fetal bovine serum at 37° C., 5% CO2 and 95% humidity.
# (§2) The objective of this study is to investigate the effect of Compound 1 on cytotoxicity against 61 different types of cancer cell lines. IC50 were values were obtained using CellTiter-Glo™ as described above. Each cell line shown in Table 3 was treated with Compound 1, a standard chemotherapy drug, cisplatin, as reference control and culture medium contains 0.2% [v/v] DMSO vehicle control. All cancer cell lines were cultured in media supplemented with 10-20% fetal bovine serum at 37° C., 5% CO2 and 95% humidity.
# (§3) The objective of this study is to investigate the effect of Compound 1 on cell viability of various types of breast cancer. Four different breast cancer cell lines were employed in the study. Each cell line shown in Table 5 was treated with Compound 1 and standard of care (cisplatin) and culture medium contains 0.2% [v/v] DMSO vehicle control and IC50 values were obtained as described above. The raw data values from the CellTiter-Glo™ cell viability assay expressed in relative luminescence units were normalized to the vehicle for each individual plate, and any reduction in luminescence indicated a decrease in viability (%). The data was analyzed in GraphPad PRISM using a non-linear sigmoidal plot with variable slope (asymmetric four-point linear regression), and an IC50 value for each compound was generated. The experiment tested pentamidine, compound 1, and standard-of-care control Cisplatin in full growth media for 8 days. Cells were initially treated with the test compounds on Day 0, and the cells were then replenished with fresh compound dilutions on Day 3. Pentamidine, Compound 1, and cisplatin were tested at 9 concentration points; 100, 33.33, 11.11, 3.70, 1.23, 0.41, 0.14, 0.05, and 0.02 μM (final DMSO concentration=0.5%).
# [2] = tested on: HCC1954; assay: as above; conditions: HCC1954, Ductal breast carcinoma
# Description: as §1, §2, §3
# [3] = tested on: ZR-75-1; assay: as above; conditions: ZR-75-1, Invasive ductal carcinoma
# Description: as §1, §2, §3
# [4] = tested on: Hep3B-luc; assay: CellTiter-Glo cell viability, liver cell lines, 8 days; conditions: full growth media
# Description: (§4) The objective of this study is to investigate the effect of Compound 1 on cell viability of various types of liver cancer. Ten (10) different liver cancer cell lines were employed in the study. Each liver cell line shown in Table 4 was treated with Compound 1, pentamidine, as reference control, a standard of care (cisplatin) and culture medium contains 0.2% [v/v] DMSO vehicle control and IC50 values were obtained as described above. The raw data values from the CellTiter-Glo™ cell viability assay expressed in relative luminescence units were normalized to the vehicle for each individual plate, and any reduction in luminescence indicated a decrease in viability (%). The data was analyzed in GraphPad PRISM using a non-linear sigmoidal plot with variable slope (asymmetric four-point linear regression), and an IC50 value for each compound was generated. The experiment tested pentamidine, compound 1, and standard-of-care control Cisplatin in full growth media for 8 days. Cells were initially treated with the test compounds on Day 0, and the cells were then replenished with fresh compound dilutions on Day 3. Pentamidine, Compound 1, and cisplatin were tested at 9 concentration points; 100, 33.33, 11.11, 3.70, 1.23, 0.41, 0.14, 0.05, and 0.02 μM (final DMSO concentration=0.5%). In particular, the IC50 values of pentamidine and Compound 1 were 0.8 and 0.6 μM in Hep3B-luc, respectively.
# The experiment tested pentamidine, Compound 1, and standard of care control, cisplatin, in full growth media for 8 days. Hep-3b cells were initially treated with the test compounds on Day 0, and the cells were then replenished with fresh compound dilutions on Day 3. […] The raw data values from the CellTiter-Glo™ cell viability assay expressed in relative luminescence units were normalized to the vehicle for each individual plate, and any reduction in luminescence indicated a decrease in viability (%). The data was analyzed in GraphPad PRISM using a non-linear sigmoidal plot with variable slope (asymmetric four-point linear regression), and an IC50 value for each compound was generated. […]
# [5] = tested on: HEP3B2.7-1; assay: as above; conditions: HEP3B2.7-1, Table 4
# Description: as §4
# [6] = tested on: HUH7; assay: as above; conditions: Homo sapiens, Huh-7, 192 h; HUH7, 8 days
# Description: as §4
# [7] = tested on: HepG2; assay: as above; conditions: Homo sapiens, 192 h; HepG2, 8 days
# Description: as §4
# [8] = tested on: HCCLM3; assay: as above; conditions: Homo sapiens, 192 h; HCCLM3, 8 days
# Description: as §4
# [9] = tested on: Hep3B; assay: as above; conditions: Homo sapiens, 192 h
# Description: as §4
# [10] = tested on: MHCC97H; assay: as above; conditions: Homo sapiens, 192 h
# Description: as §4
# [11] = tested on: HUH1; assay: as above; conditions: Homo sapiens, HuH-1, 192 h; HUH1, 8 days
# Description: as §4
# [12] = tested on: SK-HEP-1; assay: as above; conditions: Homo sapiens
# Description: as §4
Structure (SMILES),IC50 [1],IC50 [2],IC50 [3],IC50 [4],IC50 [5],IC50 [6],IC50 [7],IC50 [8],IC50 [9],IC50 [10],IC50 [11],"IC50 ([12]; SK-HEP1, SK-HEP-1, first listing in Table 4)","IC50 ([12]; SK-HEP1, SK-HEP-1, second listing in Table 4)","IC50 ([4]; Hep 3B-Luc, 192 h)"
"N.N.[Cl][Pt][Cl] [Cisplatin, cisplatin, reference compound]",600 nM,770 nM,1020 nM,5100 nM,,,,,,,,,,
"N=C(N)c1ccc(OCCCCCOc2ccc(C(=N)N)cc2)cc1 [Pentamidine, 1,5-bis(4-amidinophenoxy)pentane]",,,,,280 nM,680 nM,290 nM,6.9 µM,160 nM,4.26 µM,1790 nM,1450 nM,720 nM,800 nM
